Experimental data published in article PMC4770715, “LIM kinase inhibitors disrupt mitotic microtubule organization and impair tumor cell proliferation” (Oncotarget, 2015).

Legend:
Experiment in all cases: biochemical
Design in all cases: KINOMEscan active-site competition binding, percent of control (100 = no competition)
Conditions in all cases: competition binding, percent control
[1] = biological target: T1, DCAMKL1 (Homo sapiens, UniProt O15075)
T1 construct: gene DCLK1

[2] = biological target: T2, JAK1(JH1domain-catalytic) (Homo sapiens, UniProt P23458)
T2 construct: JH1domain-catalytic

[3] = biological target: T3, ERK8 (Homo sapiens, UniProt Q8TD08)
T3 construct: gene MAPK15

[4] = biological target: T4, ABL1(F317I)-phosphorylated (Homo sapiens, UniProt P00519, F317I)
T4 construct: phosphorylated

[5] = biological target: LATS2 (Homo sapiens, UniProt Q9NRM7)
[6] = biological target: PIK3CG (Homo sapiens, UniProt P48736)
[7] = biological target: EGFR (Homo sapiens, UniProt P00533)
[8] = biological target: KIT(L576P) (Homo sapiens, UniProt P10721, L576P)
[9] = biological target: T5, ERK1 (Homo sapiens, UniProt P27361)
T5 construct: gene MAPK3

[10] = biological target: EGFR(L858R,T790M) (Homo sapiens, UniProt P00533, L858R/T790M)
[11] = biological target: PIM2 (Homo sapiens, UniProt Q9P1W9)
[12] = biological target: T6, ABL1(Y253F)-phosphorylated (Homo sapiens, UniProt P00519, Y253F)
T6 construct: phosphorylated

[13] = biological target: T7, PIP5K2B (Homo sapiens, UniProt P78356)
T7 construct: gene PIP4K2B

[14] = biological target: EPHA4 (Homo sapiens, UniProt P54764)
[15] = biological target: PAK2 (Homo sapiens, UniProt Q13177)
[16] = biological target: ERBB4 (Homo sapiens, UniProt Q15303)
[17] = biological target: CSNK1G2 (Homo sapiens, UniProt P78368)
[18] = biological target: MET(Y1235D) (Homo sapiens, UniProt P08581, Y1235D)
[19] = biological target: T8, YANK1 (Homo sapiens, UniProt Q8WU08)
T8 construct: gene STK32A

[20] = biological target: CDK5 (Homo sapiens, UniProt Q00535)
[21] = biological target: ROS1 (Homo sapiens, UniProt P08922)
[22] = biological target: TESK1 (Homo sapiens, UniProt Q15569)
TESK1, sequence (Q15569 whole entry): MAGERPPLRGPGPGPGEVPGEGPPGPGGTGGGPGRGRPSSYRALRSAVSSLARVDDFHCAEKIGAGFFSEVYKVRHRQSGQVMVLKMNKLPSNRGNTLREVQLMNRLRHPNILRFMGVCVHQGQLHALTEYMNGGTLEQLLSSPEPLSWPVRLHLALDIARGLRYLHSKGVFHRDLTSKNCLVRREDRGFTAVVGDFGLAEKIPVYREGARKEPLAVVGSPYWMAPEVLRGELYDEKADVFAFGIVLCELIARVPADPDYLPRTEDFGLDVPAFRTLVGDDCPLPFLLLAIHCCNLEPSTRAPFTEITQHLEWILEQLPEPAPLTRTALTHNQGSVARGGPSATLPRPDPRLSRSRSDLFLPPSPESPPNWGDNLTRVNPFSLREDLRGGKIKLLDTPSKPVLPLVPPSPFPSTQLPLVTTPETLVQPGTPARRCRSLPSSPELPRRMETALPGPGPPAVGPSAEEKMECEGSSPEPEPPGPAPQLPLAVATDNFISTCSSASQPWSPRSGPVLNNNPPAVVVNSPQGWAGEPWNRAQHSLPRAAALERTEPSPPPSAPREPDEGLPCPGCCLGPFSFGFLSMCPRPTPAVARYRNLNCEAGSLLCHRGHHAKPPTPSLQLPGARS

EGFR, sequence (P00533 whole entry): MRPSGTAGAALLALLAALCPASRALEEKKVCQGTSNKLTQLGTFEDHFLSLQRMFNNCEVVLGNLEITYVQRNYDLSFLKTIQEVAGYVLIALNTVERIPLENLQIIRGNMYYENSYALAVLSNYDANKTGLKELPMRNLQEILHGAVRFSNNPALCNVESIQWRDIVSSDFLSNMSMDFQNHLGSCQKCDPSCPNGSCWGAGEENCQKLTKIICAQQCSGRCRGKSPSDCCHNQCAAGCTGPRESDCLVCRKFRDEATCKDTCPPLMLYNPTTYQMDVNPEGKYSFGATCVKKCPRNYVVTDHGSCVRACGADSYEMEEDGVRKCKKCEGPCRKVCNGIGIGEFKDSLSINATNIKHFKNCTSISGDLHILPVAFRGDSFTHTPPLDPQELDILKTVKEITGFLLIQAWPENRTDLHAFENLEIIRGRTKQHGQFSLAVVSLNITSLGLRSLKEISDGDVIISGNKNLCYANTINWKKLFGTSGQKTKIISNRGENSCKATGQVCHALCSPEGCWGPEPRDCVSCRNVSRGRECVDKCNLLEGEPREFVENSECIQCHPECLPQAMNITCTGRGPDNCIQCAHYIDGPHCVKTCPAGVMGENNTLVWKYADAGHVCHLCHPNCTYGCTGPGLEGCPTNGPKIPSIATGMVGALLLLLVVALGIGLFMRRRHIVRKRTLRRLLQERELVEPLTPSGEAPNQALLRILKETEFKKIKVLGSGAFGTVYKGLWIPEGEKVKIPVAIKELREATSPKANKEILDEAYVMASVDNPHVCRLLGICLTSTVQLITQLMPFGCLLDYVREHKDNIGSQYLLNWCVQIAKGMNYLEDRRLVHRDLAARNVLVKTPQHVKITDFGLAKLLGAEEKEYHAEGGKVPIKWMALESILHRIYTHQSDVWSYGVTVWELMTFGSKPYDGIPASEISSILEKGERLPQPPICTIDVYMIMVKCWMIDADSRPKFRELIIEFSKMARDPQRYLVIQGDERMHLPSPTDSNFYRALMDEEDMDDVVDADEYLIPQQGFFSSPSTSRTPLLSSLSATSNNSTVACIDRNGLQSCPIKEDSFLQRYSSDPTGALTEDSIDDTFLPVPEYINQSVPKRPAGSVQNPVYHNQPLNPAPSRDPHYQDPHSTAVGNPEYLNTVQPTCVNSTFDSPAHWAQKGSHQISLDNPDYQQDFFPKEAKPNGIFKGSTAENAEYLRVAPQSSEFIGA
T7 sequence (P78356 whole entry): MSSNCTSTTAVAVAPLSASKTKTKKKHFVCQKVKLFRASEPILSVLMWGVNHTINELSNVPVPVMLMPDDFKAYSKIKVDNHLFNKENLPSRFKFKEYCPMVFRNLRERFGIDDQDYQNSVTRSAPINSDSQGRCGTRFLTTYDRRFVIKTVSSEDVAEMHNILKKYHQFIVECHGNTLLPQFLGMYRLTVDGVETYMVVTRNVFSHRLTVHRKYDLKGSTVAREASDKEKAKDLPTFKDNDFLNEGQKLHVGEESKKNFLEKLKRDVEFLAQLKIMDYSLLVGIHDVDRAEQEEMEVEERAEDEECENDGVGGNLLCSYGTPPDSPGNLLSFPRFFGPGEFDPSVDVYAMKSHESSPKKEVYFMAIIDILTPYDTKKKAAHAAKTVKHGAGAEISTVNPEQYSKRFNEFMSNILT
PIM2, sequence (Q9P1W9 whole entry): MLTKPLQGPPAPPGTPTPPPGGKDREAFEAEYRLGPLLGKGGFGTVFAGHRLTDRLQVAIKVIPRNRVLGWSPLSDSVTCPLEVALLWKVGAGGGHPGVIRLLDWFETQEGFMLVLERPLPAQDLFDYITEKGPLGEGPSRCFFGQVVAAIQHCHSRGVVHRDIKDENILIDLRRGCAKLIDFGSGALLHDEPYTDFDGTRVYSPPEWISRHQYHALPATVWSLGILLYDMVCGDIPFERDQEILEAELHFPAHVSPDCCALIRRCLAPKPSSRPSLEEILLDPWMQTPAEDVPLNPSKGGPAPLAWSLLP
LATS2, sequence (Q9NRM7 whole entry): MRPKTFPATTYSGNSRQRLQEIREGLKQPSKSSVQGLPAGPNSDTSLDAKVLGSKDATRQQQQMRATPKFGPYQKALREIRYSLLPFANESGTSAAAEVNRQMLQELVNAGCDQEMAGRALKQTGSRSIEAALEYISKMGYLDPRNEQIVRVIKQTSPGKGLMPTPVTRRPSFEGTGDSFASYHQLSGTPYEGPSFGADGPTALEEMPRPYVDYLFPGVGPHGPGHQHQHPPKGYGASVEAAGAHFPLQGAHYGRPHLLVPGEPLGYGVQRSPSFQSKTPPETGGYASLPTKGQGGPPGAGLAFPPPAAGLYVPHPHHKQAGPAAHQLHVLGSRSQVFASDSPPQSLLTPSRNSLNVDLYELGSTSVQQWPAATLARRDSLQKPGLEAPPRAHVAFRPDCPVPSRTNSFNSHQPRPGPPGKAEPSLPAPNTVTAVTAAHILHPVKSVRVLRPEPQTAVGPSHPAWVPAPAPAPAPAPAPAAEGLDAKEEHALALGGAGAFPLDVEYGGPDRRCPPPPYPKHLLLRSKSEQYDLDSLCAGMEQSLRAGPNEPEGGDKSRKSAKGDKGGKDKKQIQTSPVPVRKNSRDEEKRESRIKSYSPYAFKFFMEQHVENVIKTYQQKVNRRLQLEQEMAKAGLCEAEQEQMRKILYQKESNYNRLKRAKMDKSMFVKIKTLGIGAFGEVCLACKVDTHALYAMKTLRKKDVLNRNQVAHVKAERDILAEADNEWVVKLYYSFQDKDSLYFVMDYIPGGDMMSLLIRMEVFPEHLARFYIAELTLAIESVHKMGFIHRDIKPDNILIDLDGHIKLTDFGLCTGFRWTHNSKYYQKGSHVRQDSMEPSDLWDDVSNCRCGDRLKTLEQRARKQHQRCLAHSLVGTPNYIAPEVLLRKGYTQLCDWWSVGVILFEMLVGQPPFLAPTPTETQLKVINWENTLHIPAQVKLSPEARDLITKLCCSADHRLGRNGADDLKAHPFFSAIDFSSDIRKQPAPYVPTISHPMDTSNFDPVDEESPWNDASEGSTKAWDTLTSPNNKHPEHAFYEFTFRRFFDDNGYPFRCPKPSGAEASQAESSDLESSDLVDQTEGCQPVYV
CSNK1G2, sequence (P78368 whole entry): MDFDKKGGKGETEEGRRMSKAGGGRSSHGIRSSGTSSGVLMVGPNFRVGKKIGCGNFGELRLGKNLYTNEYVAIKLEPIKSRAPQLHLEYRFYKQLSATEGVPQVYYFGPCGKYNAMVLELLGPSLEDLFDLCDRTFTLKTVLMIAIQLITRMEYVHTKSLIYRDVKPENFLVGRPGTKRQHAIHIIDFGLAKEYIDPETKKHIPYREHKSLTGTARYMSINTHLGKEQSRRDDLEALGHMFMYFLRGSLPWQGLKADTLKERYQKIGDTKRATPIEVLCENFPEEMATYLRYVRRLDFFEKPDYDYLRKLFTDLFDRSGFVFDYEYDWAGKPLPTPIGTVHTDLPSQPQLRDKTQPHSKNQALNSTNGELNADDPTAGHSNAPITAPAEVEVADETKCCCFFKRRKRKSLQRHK
T8 sequence (Q8WU08 whole entry): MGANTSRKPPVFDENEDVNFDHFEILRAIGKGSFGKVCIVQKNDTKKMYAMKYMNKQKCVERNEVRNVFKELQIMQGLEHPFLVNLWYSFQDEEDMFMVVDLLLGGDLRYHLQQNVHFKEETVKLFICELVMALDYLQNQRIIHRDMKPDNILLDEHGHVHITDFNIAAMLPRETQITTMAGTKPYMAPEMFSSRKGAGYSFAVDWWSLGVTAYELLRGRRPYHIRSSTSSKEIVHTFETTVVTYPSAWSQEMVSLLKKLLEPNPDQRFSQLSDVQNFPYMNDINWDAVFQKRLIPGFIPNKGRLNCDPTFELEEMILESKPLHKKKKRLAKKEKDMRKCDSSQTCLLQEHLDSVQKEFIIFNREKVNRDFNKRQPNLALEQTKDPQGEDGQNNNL
PAK2, sequence (Q13177 whole entry): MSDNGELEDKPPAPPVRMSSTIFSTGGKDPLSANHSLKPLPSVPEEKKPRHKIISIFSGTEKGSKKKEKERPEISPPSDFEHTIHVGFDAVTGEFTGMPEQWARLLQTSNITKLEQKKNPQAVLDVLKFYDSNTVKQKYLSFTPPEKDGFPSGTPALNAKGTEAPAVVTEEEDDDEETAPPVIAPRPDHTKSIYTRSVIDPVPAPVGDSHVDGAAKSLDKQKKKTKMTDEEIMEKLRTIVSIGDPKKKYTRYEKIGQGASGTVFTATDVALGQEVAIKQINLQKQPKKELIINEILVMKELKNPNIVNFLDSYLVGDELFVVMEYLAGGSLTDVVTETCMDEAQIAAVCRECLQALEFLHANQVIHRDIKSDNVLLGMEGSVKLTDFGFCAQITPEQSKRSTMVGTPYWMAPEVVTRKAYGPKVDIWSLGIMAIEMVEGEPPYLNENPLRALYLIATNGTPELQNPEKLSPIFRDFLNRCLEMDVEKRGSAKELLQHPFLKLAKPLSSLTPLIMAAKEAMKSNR

COc1ccc(-c2cnccc2-c2cnc(NC(=O)C(C)C)s2)c(C(F)(F)F)c1 [CRT0105446, N-{5-[3-(4-Methoxy-2-trifluoromethyl-phenyl)-pyridin-4-yl]-hiazol-2-yl}-isobutyramide]
remaining binding at 10 µM [1]: 46% | remaining binding at 10 µM [2]: 89% | remaining binding at 10 µM [3]: 1.4% | remaining binding at 10 µM [4]: 76% | remaining binding at 10 µM [5]: 90% | remaining binding at 10 µM [6]: 96% | remaining binding at 10 µM [7]: 100% | remaining binding at 10 µM [8]: 36% | remaining binding at 10 µM [9]: 100% | remaining binding at 10 µM [10]: 91% | remaining binding at 10 µM [11]: 100% | remaining binding at 10 µM [12]: 89% | remaining binding at 10 µM [13]: 100% | remaining binding at 10 µM [14]: 100% | remaining binding at 10 µM [15]: 80% | remaining binding at 10 µM [16]: 100% | remaining binding at 10 µM [17]: 55% | remaining binding at 10 µM [18]: 96% | remaining binding at 10 µM [19]: 69% | remaining binding at 10 µM [20]: 60% | remaining binding at 10 µM [21]: 100% | remaining binding at 10 µM [22]: 96%

Cc1ccc(-c2cnccc2-c2cnc(Nc3ccc(O)cc3)s2)c(Cl)c1 [CRT0105950, 4-{5-[3-(2-Chloro-4-methyl-phenyl)-pyridin-4-yl]-thiazol-2-ylamino}-phenol]
remaining binding at 10 µM [1]: 75% | remaining binding at 10 µM [2]: 53% | remaining binding at 10 µM [3]: 1.6% | remaining binding at 10 µM [4]: 87% | remaining binding at 10 µM [5]: 6% | remaining binding at 10 µM [6]: 82% | remaining binding at 10 µM [7]: 53% | remaining binding at 10 µM [8]: 0.4% | remaining binding at 10 µM [9]: 96% | remaining binding at 10 µM [10]: 89% | remaining binding at 10 µM [11]: 100% | remaining binding at 10 µM [12]: 74% | remaining binding at 10 µM [13]: 44% | remaining binding at 10 µM [14]: 94% | remaining binding at 10 µM [15]: 76% | remaining binding at 10 µM [16]: 94% | remaining binding at 10 µM [17]: 30% | remaining binding at 10 µM [18]: 14% | remaining binding at 10 µM [19]: 88% | remaining binding at 10 µM [20]: 12% | remaining binding at 10 µM [21]: 100% | remaining binding at 10 µM [22]: 20%
